Structures can show the parent of a compound that is named as a salt. Where two headings read alike, the source gives them in different places.
How the values were obtained:
[1] = test system: polyamine levels in Kelly neuroblastoma cells; assay: Polyamine analysis (HPLC of dansylated polyamines); format: cell-based; details: 500 μM inhibitor; for Kelly Treated Neuroblastoma Cells (Total Spm): Control = 2.57+0.47; for Kelly Treated Neuroblastoma Cells (Spd): Control = 8.52+1.63; for Kelly Treated Neuroblastoma Cells (Total Put): Control = 9.71+1.31; for Kelly Treated Neuroblastoma Cells (Total PA): Control = 20.81 +2.67; for polyamine levels relative to control (in words) / putrescine level (in words): Figure 6B
Experimental: Polyamines from Kelly neuroblastoma cells treated with 500 μM inhibitors were isolated, dansylated, and analyzed by HPLC. Briefly, polyamines were extracted and protonated in perchloric acid/sodium chloride buffer. To 100 μL of sample, 4.5 nmol of 1,7 diaminoheptane internal standard and 200 μL of 1 M sodium carbonate was added prior to dansylation with 400 μL of 5 mg/mL dansyl chloride (Sigma-Aldrich) for 60 min at 65 °C. One hundred μL of 1 M proline was then added to each reaction and incubated for 20 min at 65 °C. Polyamines were extracted from the mixture using methylene chloride. The methylene chloride was allowed to evaporate, the samples were resuspended in methanol and run through a C18 cleanup column. Samples were then analyzed using a Thermo Scientific/Dionex Ultimate 3000 HPLC, using a Syncronis C18 column (250 × 4.6 mm, […] pore size), and containing a fluorescence detector. The dansylated polyamine peaks were visualized by excitation at 340 nm and emission at 515 nm. The buffers used for elution of the polyamines were as follows: buffer A: 10 mM sodium heptanesulfonate/10% acetontrile at pH 3.4. Buffer B: 100% acetonitrile. The flow rate was 0.7 mL per minute. The column was equilibrated with 55% buffer B/45% buffer A prior to injection of the sample. Upon injection of the sample, elution of polyamines occurs in an isocratic solution of 55% buffer B/45% buffer A for 28 min. The solution was then slowly ramped to 95% buffer B/5% buffer A for 20 min. This gradient was held for 27 min to elute the spermine peak. The solution was then quickly dropped back to 55% buffer B/45% buffer A to re-equilibrate the column prior to the next sample being injected. Using the relative molar response derived from N-dansylated PA and 1,7 diaminoheptane standards, the amount of N-dansylated polyamines was calculated and normalized to total sample protein.

[2] = target: T1, purified human ODC enzyme (Homo sapiens, UniProt P11926); assay: In vitro ODC enzyme activity assay; format: biochemical; details: for IC50: read-out: ODC biochemical inhibition IC50
T1 construct: His6 (C); made in house; host or cells: E. coli BL21(DE3)
T1 sequence (P11926 1-461): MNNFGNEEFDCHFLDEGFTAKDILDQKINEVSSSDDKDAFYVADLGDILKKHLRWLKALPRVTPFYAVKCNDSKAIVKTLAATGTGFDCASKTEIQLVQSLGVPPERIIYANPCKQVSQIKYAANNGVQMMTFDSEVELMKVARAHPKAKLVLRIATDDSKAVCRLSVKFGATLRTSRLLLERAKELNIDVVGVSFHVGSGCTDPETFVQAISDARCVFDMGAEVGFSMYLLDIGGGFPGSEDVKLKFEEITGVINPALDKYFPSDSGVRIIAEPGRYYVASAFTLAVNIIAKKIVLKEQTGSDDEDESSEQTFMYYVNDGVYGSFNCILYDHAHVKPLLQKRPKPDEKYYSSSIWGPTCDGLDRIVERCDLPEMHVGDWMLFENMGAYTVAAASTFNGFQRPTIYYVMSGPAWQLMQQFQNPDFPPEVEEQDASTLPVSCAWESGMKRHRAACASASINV
Experimental: (§1) Our strategy to identify novel ODC inhibitors was to first screen new analogs for ODC inhibition at 50 μM using our in vitro enzyme activity assay and purified human ODC (Table 1). Those showing significant inhibition were then titrated to provide an ODC IC50 followed by cell-based screening against both cancer (Kelly neuroblastoma) and noncancerous (neonatal fibroblasts) cell lines. For the cancer cell line, higher cytotoxicity was desired and for the noncancerous cell line counter screen, lower cytotoxicity was desired.
In vitro ODC activity was measured using 100 ng of purified human ODC enzyme, as we previously described.[53],[99] ODC was incubated with increasing concentrations of inhibitors for 30 min at room temperature in a buffer containing 25 mM Tris and 0.1 mM EDTA. […] In the cell-based ODC activity assay, Kelly neuroblastoma cells that were treated with 500 μM inhibitors were harvested in a buffer containing 25 mM Tris HCl, 0.1 mM EDTA, and 2.5 mM DTT. […] For both the in vitro and cell-based assay, the microcentrifuge tubes were then placed into scintillation vials containing a piece of filter paper saturated with 200 μL of 0.1 M NaOH to capture the release of radiolabeled carbon dioxide. The samples were incubated in a 37 °C incubator while shaking for 30 min (in vitro) or 2 h (cell-based). The enzymatic reaction was stopped by adding 250 μL of 5 M sulfuric acid to each sample and incubating at 37 °C while shaking for 30 min. The microcentrifuge tubes were removed from the scintillation vials, and 5 mL of scintillation fluid was added. Disintegrations per minute (DPM) of each sample was measured using a TriCarb liquid scintillation counter (PerkinElmer). The specific ODC activity is expressed as nmol CO2/min/mg protein (in vitro) or pmol CO2/min/mg protein (cell-based). The individual ODC inhibitor IC50 values were determined using Graphpad Prism 8.

[3] = target: homogeneous bovine brain spermidine synthase; design: method as in PMID 3861182; details: competitive; read-out: Ki, competitive inhibitor of bovine brain spermidine synthase; cited from earlier work
[4] = test system: Kelly neuroblastoma cells; assay: Sulforhodamine B (SRB) cytotoxicity assay, Kelly neuroblastoma cells; format: cell-based; details: for Cell cytotoxicity (72 hr @ 500 μM) Kelly Neuroblastoma: percent cytotoxicity; for cytotoxicity at 500 µM: Kelly, 72 hrs @500 µM, supplement csv, read-out: Kelly Neuroblasoma Cells (72 hrs @500 µM) %cytotoxicity
Experimental: as §1
Normal primary human neonatal fibroblast cells (ATCC) were maintained in DMEM medium (Gibco) supplemented with 10% heat-inactivated fetal bovine serum (Hyclone), penicillin (100 IU/mL), and streptomycin (100 μg/mL), nonessential amino acids (0.1 mM) and sodium pyruvate (1 mM). Kelly neuroblastoma cells (Sigma-Aldrich) were maintained in RPMI medium (Corning) supplemented with 10% heat-inactivated fetal bovine serum (Hyclone), penicillin (100 IU/mL), and streptomycin (100 μg/mL). Cell lines were routinely monitored for mycoplasma contamination using the MycoAlert PLUS Mycoplasma Detection Kit (Lonza).
The colorimetric sulforhodamine B (SRB) assay was used to measure cytotoxicity following treatment with ODC inhibitors. Briefly, Kelly neuroblastoma cells and normal primary human neonatal fibroblast cells were plated in transparent flat 96-well plates and allowed to attach overnight. Cells were treated with control or 500 μM ODC inhibitor for 72 h. Cells were then fixed with 10% TCA at 4 °C for 1 h, washed with deionized water, and dried at room temperature. Cells were stained with 100 μL of 0.4% SRB in 1% acetic acid for 20 min at room temperature, rinsed five times with 1% acetic acid and allowed to dry at room temperature. One hundred μL of 10 mM Tris–HCl pH 7.0 was added to each well, shaken for 10 min at room temperature and absorbance was read at 540 nm. Absorbance values were normalized relative to control readings and converted to percentage by multiplying by one hundred. The percent cytotoxicity was then determined by subtracting the relative percentage of the ODC inhibitor treated readings from the control which is 100%.

[5] = read-out: ODC biochemical inhibition % (50 μM)

| inhibition at 50 µM ([2]; 50 µM, supplement csv, read-out: ODC % inhibition (screened at 50 µM)) | inhibition at 50 µM [2, 5] | IC50 [2] | Structure (SMILES) | Kelly Treated Neuroblastoma Cells (Total Spm) [1] | Kelly Treated Neuroblastoma Cells (Spd) [1] | Kelly Treated Neuroblastoma Cells (Total Put) [1] | Kelly Treated Neuroblastoma Cells (Total PA) [1] | polyamine levels relative to control (in words) ([1]; Kelly neuroblastoma cells) | putrescine level (in words) ([1]; Kelly neuroblastoma cells) | Ki [3] | activity against Kelly neuroblastoma cells (in words) ([4]; 72 h, 500 μM) | Cell cytotoxicity (72 hr @ 500 μM) Kelly Neuroblastoma ([4]; 500 μM) | cytotoxicity at 500 µM [4] | spermidine and spermine levels (in words) ([1]; Kelly neuroblastoma cells, relative to APA) |
| --- | --- | --- | --- | --- | --- | --- | --- | --- | --- | --- | --- | --- | --- | --- |
| 99% | > 99% | 40 nM | NCCCON [APA, 3-(Aminooxy)propan-1-Amine Dihydrochloride] | 5.09+1.39 | 7.14+6.27 | 0 | 12.2+7.59 | reduced polyamine levels | undetected | 2300 nM | greater anticancer activity | 77±21% | 77% | – |
| – | > 99% | 50 nM | Cl.Cl.NOCC1(F)CCNC1 (stereo not drawn) [Compound 11, 3-[(aminooxy)methyl]-3-fluoropyrrolidine di-formic acid] | 2.74+0.46 | 1.81+0.73 | 0 | 4.55+1.14 | reduced polyamine levels | undetected | – | – | 46±9% | 46% | greatest reductions |

Source: PMC11912471 (Journal of Medicinal Chemistry, 2025)
